Earlier results on one compound are cited in patent US20240115547A1, “PSYCHOTROPIC AGENTS AND USES THEREOF” (LB PHARMACEUTICALS INC., priority 2021, published 2024).

In one series the target is D5 receptor subtype (Homo sapiens, UniProt P21918). To be noted: cited from earlier work.
In a further series the target is T1, D4 receptor subtype (Homo sapiens, UniProt P21917).
T1 sequence (P21917 1-419): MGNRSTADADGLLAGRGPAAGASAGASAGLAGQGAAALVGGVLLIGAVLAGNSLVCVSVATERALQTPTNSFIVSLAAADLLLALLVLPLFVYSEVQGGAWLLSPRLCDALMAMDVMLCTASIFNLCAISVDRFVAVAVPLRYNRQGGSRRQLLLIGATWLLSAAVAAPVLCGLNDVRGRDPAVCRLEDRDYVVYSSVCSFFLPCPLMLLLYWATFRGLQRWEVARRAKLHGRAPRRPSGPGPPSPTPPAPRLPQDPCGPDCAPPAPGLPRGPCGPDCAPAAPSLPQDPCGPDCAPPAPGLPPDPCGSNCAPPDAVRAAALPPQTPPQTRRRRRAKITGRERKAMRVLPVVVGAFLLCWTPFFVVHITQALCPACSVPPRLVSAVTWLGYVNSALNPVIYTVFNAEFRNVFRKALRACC
To be noted: cited from earlier work.

Another series has as its target 5-HT2a receptor (Homo sapiens, UniProt P28223). Conditions: compared to other antipsychotics; cited from earlier work.
For series [1] the following is noted: administration of 50 mg amisulpride, previously published (FIG. 4A); cited from earlier work.
The target of another series is D1 receptor subtype (Homo sapiens, UniProt P21728). Conditions: cited from earlier work.
Sequence of D1 receptor subtype (P21728 whole entry): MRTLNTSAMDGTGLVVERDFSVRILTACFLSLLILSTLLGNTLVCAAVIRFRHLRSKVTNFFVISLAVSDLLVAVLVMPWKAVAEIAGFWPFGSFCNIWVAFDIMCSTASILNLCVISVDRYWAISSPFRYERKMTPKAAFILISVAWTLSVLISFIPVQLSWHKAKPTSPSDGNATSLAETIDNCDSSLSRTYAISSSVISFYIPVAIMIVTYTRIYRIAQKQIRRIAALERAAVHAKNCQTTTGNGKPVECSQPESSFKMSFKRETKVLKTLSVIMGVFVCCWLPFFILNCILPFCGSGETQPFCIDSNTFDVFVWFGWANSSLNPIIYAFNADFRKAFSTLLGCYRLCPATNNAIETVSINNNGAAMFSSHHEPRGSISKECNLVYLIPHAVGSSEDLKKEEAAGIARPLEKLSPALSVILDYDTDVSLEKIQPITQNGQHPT
The subject of a further series is Striatal D2/D3 Receptor. To be noted: in vivo; cited from earlier work.
For series [2] the following is noted: 2014 study; cited from earlier work.

Sequence of 5-HT2a receptor (P28223 whole entry): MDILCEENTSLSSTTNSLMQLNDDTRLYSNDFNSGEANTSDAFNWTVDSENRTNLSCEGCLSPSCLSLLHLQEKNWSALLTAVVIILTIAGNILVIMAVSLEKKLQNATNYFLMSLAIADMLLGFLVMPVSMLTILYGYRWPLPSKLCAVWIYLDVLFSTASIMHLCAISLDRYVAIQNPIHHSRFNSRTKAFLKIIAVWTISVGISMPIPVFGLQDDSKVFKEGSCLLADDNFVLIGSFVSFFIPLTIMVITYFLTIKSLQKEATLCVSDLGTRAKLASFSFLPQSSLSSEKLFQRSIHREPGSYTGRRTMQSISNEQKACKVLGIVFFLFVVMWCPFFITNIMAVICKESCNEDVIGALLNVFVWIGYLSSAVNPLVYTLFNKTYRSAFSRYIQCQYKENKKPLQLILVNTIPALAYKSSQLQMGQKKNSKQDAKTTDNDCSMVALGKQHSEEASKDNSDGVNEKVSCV
Sequence of D5 receptor subtype (P21918 whole entry): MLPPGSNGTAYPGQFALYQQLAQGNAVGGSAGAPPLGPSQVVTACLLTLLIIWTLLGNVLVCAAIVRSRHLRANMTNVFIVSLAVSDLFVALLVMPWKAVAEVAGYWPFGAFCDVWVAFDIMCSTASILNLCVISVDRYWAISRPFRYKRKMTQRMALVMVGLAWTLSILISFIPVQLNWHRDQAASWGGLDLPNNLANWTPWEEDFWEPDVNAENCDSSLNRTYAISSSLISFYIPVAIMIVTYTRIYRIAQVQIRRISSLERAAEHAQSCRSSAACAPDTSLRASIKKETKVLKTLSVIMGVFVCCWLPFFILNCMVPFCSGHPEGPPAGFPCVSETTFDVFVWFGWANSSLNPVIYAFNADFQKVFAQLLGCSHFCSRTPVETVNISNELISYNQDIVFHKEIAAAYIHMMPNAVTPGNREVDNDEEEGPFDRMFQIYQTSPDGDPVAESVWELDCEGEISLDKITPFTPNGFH

Regarding `CCN1CCCC1CNC(=O)c1cc(S(=O)(=O)CC)c(N)cc1OC` (stereo not shown) [amisulpride, 4-amino-N-(((1-ethyl-2-pyrrolidinyl)methyl)-5-(ethylsulfonyl))-2-methoxybenzamide], on D5 receptor subtype, the “affinity for D5 receptor subtype” value is listed as “without any affinity”. In addition, at D4 receptor subtype, the “affinity for D4 receptor subtype” value is “without any affinity”. Also, the “activity at the 5-HT2a receptor” value on 5-HT2a receptor is reported as “not noted to have any activity”. In series [1], the AUC is on record as 603 ngh/mL. Further, on D1 receptor subtype, the “affinity for D1 receptor subtype” value was “without any affinity”. In addition, the “dose required for 75% dopamine (e.g., D2/D3) RO” value with Striatal D2/D3 Receptor is listed as “more than 400 mg”. Besides, the “passive diffusion across a PAMPA membrane (measured as Pe)” value in series [2] was “lowest of 30 psychiatric drugs tested”.
